Experimental data from patent publication US7244713B2, “Nucleoside compounds for treating viral infections” (Genelabs Technologies, Inc., priority 2003, dated 2007).

Experiments:
HCV = conditions: treatment of HCV, long term efficacy; cited from earlier work
HCV-NS5b = target: T1, HCV-NS5b (Hepatitis C virus genotype 1b, UniProt Q9WMX2); assay: HCV-NS5b enzyme assay; type: biochemical
T1 construct: The cloned fragment is missing the C terminus 21 amino acid residues; (His)6 (C); made in house; host or cells: XL-1 cells (E. coli, IPTG-inducible plasmid)
Description: The coding sequence of NS5b protein is cloned by PCR from pFKI389luc/NS3-3′/ET as described by Lohmann, V., et al. (1999) Science 285, 110-113 using the following primers: […]
The cloned fragment is missing the C terminus 21 amino acid residues. The cloned fragment is inserted into an IPTG-inducible expression plasmid that provides an epitope tag (His)6 at the carboxy terminus of the protein.
The recombinant enzyme is expressed in XL-1 cells and after induction of expression, the protein is purified using affinity chromatography on a nickel-NTA column. Storage condition is 10 mM Tris-HCl pH 7.5, 50 mM NaCl, 0.1 mM EDTA, 1 mM DTT, 20% glycerol at −20° C.
The polymerase activity is assayed by measuring incorporation of radiolabeled UTP into a RNA product using a biotinylated, heteropolymeric template, which includes a portion of the HCV genome. Typically, the assay mixture (50 μL) contains 10 mM Tris-HCl (pH 7.5), 5 mM MgCl2, 0.2 mM EDTA, 10 mM KCl, 1 unit/μL RNAsin, 1 mM DTT, 10 μM each of NTP, including [^3H]-UTP, and 10 ng/μL heteropolymeric template. Test compounds are initially dissolved in 100% DMSO and further diluted in aqueous buffer containing 5% DMSO. Typically, compounds are tested at concentrations between 1 nM and 100 μM. Reactions are started with addition of enzyme and allowed to continue at 37° C. for 2 hours. Reactions are quenched with 8 μL of 100 mM EDTA and reaction mixtures (30 μL) are transferred to streptavidin-coated scintillation proximity microtiter plates (FlashPlates) and incubated at 4° C. overnight. Incorporation of radioactivity is determined by scintillation counting.

[1] = system: HCV replicon in ET (Huh-lucubineo-ET) cell line; assay: Replicon assay (luciferase, ET cells); type: cell-based, hepatitis C virus
Procedure: A cell line, ET (Huh-lucubineo-ET) is used for screening of compounds of the present invention for HCV RNA dependent RNA polymerase. The ET cell line is stably transfected with RNA transcripts harboring a I389luc-ubi-neo/NS3-3′/ET; replicon with firefly luciferase-ubiquitin-neomycin phosphotransferase fusion protein and EMCV-IRES driven NS3-5B polyprotein containing the cell culture adaptive mutations (E1202G; T1280I; K1846T) (Krieger at al, 2001 and unpublished). The ET cells are grown in DMEM, supplemented with 10% fetal calf serum, 2 mM Glutamine, Penicillin (100 IU/mL)/Streptomycin (100 μg/mL), 1× nonessential amino acids, and 250 μg/mL G418 (“Geneticin”). They are all available through Life Technologies (Bethesda, Md.). The cells are plated at 0.5-1.0×10^4 cells/well in the 96 well plates and incubated for 24 hrs before adding nucleoside analogs. Then the compounds were added to the cells to achieve a final concentration of 50 or 100 μM, or whatever concentration is desired. For these determinations, 6 dilutions of each compound are used. Compounds are typically diluted 3 fold to span a concentration range of 250 fold. Luciferase activity will be measured 48-72 hours later by adding a lysis buffer and the substrate (Catalog number Glo-lysis buffer E2661 and Bright-Glo leuciferase system E2620 Promega, Madison, Wis.). Cells should not be too confluent during the assay. Percent inhibition of replication will be plotted relative to no compound control. Under the same condition, cytotoxicity of the compounds will be determined using cell proliferation reagent, WST-1 (Roche, Germany). IC50 and TC50 values are calculated by fitting % inhibition at each concentration to the following equation, where b is Hill's coefficient: % inhibition=100%/[(IC50/[I])^b+1]

[2] = currently recommended doses; cited from earlier work

Compound	inhibition at 50 µM ([1]; Hepatitis C virus, 50 μM) [%]	inhibition at 100 µM ([1]; Hepatitis C virus, 100 μM) [%]	also measured
interferon	–	–	response rate (HCV): about 25%
C[C@@]1(O)[C@H](O)[C@@H](COP(=O)(O)OP(=O)(O)OP(=O)(O)O)O[C@H]1n1cc(C=O)c2c(N)ncnc21 [Cmpd 168, 7-(2′-C-methyl-5′-triphospho-β-D-ribofuranosyl)-4-amino-5-(formyl)-pyrrolo[2,3-d]pyrimidine]	–	–	inhibition at 7.7 µM (HCV-NS5b; 7.7 μM, read-out: Enzyme, % inhibition @Con 2): 92%; inhibition at 23.1 µM (HCV-NS5b; 23.1 μM, read-out: Enzyme, % inhibition @Con 1): 96%
C=Cc1cn([C@@H]2O[C@H](CO)[C@@H](O)[C@@]2(C)O)c2ncnc(N)c12 [Cmpd 157, 7-(2′-C-methyl-β-D-ribofuranosyl)-4-amino-5-(ethen-1-yl)-pyrrolo[2,3-d]pyrimidine]	89	95	–
C[C@@]1(O)[C@H](O)[C@@H](CO)O[C@H]1n1cc(C#CC(=O)O)c2c(N)ncnc21 [Cmpd 133, 7-(2′-C-methyl-β-D-ribofuranosyl)-4-amino-5-(2-carboxyethyn-1-yl)-pyrrolo[2,3-d]pyrimidine]	92.3	96.7	–
C[C@@]1(O)[C@H](O)[C@@H](COP(=O)(O)OP(=O)(O)OP(=O)(O)O)O[C@H]1n1cc(C#Cc2ccccc2)c2c(N)ncnc21 [Cmpd 154, 7-(2′-C-methyl-5′-triphospho-β-D-ribofuranosyl)-4-amino-5-(2-phenylethyn-1-yl)-pyrrolo[2,3-d]pyrimidine]	–	–	inhibition at 16.7 µM (HCV-NS5b; 16.7 μM, read-out: Enzyme, % inhibition @Con 2): 10.9%; inhibition at 50 µM (HCV-NS5b; 50 μM, read-out: Enzyme, % inhibition @Con 1): 19.2%
C[C@@]1(O)C(O)C(CO)OC1n1cc(C=NO)c2c(N)ncnc21 (stereo in doubt) [Cmpd 173, 7-(2′-C-methyl-β-D-ribofuranosyl)-4-amino-5-(carbaldehyde oxime)-pyrrolo[2,3-d]pyrimidine]	76.7	86.9	–
C[C@@]1(O)[C@H](O)[C@@H](COP(=O)(O)O)O[C@H]1n1cc(C=O)c2c(N)ncnc21 [Cmpd 166, 7-(2′-C-methyl-5′-phospho-β-D-ribofuranosyl)-4-amino-5-(formyl)-pyrrolo[2,3-d]pyrimidine]	97	–	inhibition at 16.7 µM ([1]; Hepatitis C virus, 16.7 μM, second test): 96.6%
C[C@@]1(O)[C@H](O)[C@@H](CO)O[C@H]1n1cc(C#Cc2ccccc2)c2c(N)ncnc21 [Cmpd 145, 7-(2′-C-methyl-β-D-ribofuranosyl)-4-amino-5-(2-phenylethyn-1-yl)-pyrrolo[2,3-d]pyrimidine]	90.7	91.8	–
C[C@@]1(O)[C@H](O)[C@@H](CO)O[C@H]1n1cc(C#C[Si](C)(C)C)c2c(N)ncnc21 [Cmpd 101, 7-(2′-C-methyl-β-D-ribofuranosyl)-4-amino-5-(2′-trimethylsilylethyn-1-yl)-pyrrolo[2,3-d]pyrimidine]	–	–	inhibition at 50 µM ([1]; Hepatitis C virus): 98.1%; inhibition at 100 µM ([1]; Hepatitis C virus): 98.5%
C[C@@]1(O)[C@H](O)[C@@H](CO)O[C@H]1n1cc(C=O)c2c(N)ncnc21 [Cmpd 165, 7-(2′-C-methyl-β-D-ribofuranosyl)-4-amino-5-(formyl)-pyrrolo[2,3-d]pyrimidine]	–	–	inhibition at 50 µM ([1]; Hepatitis C virus): 96.8%; inhibition at 100 µM ([1]; Hepatitis C virus): 95.9%
CCOC(C#Cc1cn(C2OC(CO)C(O)[C@@]2(C)O)c2ncnc(N)c12)OCC (stereo in doubt) [Cmpd 106, 7-(2′-C-methyl-β-D-ribofuranosyl)-4-amino-5-[(3,3-diethoxy)proparg-1-yl]-pyrrolo[2,3-d]pyrimidine]	95.5	95.6	–
C[C@@]1(O)C(O)C(CO)OC1n1cc(/C=N/N)c2c(N)ncnc21 (stereo partly drawn) [Cmpd 169, 7-(2′-C-methyl-β-D-ribofuranosyl)-4-amino-5-(hydrazono)-pyrrolo[2,3-d]pyrimidine]	80.7	89.6	–
C[C@@]1(O)C(O)C(CO)OC1n1cc(B(O)O)c2c(N)ncnc21 (stereo in doubt) [Cmpd 181, 7-(2′-C-methyl-β-D-ribofuranosyl)-4-amino-5-(boronic acid)-pyrrolo[2,3-d]pyrimidine]	98.2	98.1	–
C[C@@]1(O)C(O)C(CO)OC1n1cc(C#CC(N)=O)c2c(N)ncnc21 (stereo in doubt) [Cmpd 105, 7-(2′-C-methyl-β-D-ribofuranosyl)-4-amino-5-(2-carboxamidoethyn-1-yl)-pyrrolo[2,3-d]pyrimidine]	69.6	89.1	–
NC(=O)c1ncn([C@@H]2O[C@H](CO)[C@@H](O)[C@H]2O)n1 [Ribavirin, 1-β-D-ribofuranosyl-1H-1,2,-4-triazole-3-carboxamide]	–	–	patients with significant hemolysis [2]: 10-20%
CO/C=C\c1cn([C@@H]2O[C@H](CO)[C@@H](O)[C@@]2(C)O)c2ncnc(N)c12 [Cmpd 158, 7-(2′-C-methyl-β-D-ribofuranosyl)-4-amino-5-(2-cis-methoxy-ethen-1-yl)-pyrrolo[2,3-d]pyrimidine]	–	78.6	Replicon, % inhibition @100 μM ([1]; 100 μM): 62.4%
CCOC(=O)C#Cc1cn([C@@H]2O[C@H](CO)[C@@H](O)[C@@]2(C)O)c2ncnc(N)c12 [Cmpd 137, 7-(2′-C-methyl-β-D-ribofuranosyl)-4-amino-5-[(ethyl 2-carboxyl)ethyn-1-yl]-pyrrolo[2,3-d]pyrimidine]	98.1	97.6	–
